* marks the point of attachment. Biotin = O=C1N[C@H]2[C@H](CS[C@H]2CCCCC(=O)*)N1
Tests used:
[1] = target: T1, MMSc1 PDZ 3 (Homo sapiens, UniProt Q8NI35); experiment: Peptide binding ELISA assay (PDZ Binding Assay), MMSC1 PDZ domain 3; details: immobilized GST fusion of MMSc1 PDZ 3; biotinylated peptide pre-bound to streptavidin-alkaline phosphatase; colorimetric phosphatase assay
T1 construct: made in house; host or cells: E. coli
T1 sequence (Q8NI35 365-453 limits assumed): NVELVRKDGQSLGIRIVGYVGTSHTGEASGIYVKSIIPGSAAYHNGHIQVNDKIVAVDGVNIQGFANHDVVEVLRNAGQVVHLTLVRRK
Excerpt: (§1) cDNAs encoding each of the MMSC1 PDZ domains (amino acid residues identified in Table 1), and any desired control proteins, were generated by PCR and subcloned as glutathione S-transferase (GST) fusions in pGEX vectors (Pharmacia). After sequencing to confirm expression construct integrity, the resulting clones were expressed in E. coli and the desired fusion proteins isolated with glutathione-agarose and recovered with glutathione elution. These fusion proteins or control proteins were then adsorbed to different wells of a 96-well ELISA plate and remaining sites blocked with BSA. Synthetic commercially synthesized peptides encoding the desired PDZ-binding domain (i.e., the 16 C-terminal amino acids of MMAC1, or the C-terminal peptide sequences of interacting proteins identified by the approach of Example 2, or the C-terminal peptide sequences identified by the approach of Example 3), or a control peptide, and biotinylated at the amino-terminus, were pre-bound to streptavidin-alkaline phosphatase in a 4:1 molar ratio. The biotinylated peptide streptavidin-alkaline phosphatase complexes were then blocked with free biotin. These pre-bound peptide streptavidin-alkaline phosphatase complexes were then incubated with the immobilized PDZ domains in wash buffer containing PBS, BSA and triton-X100. Unbound material was removed with repeated washes. Bound peptide/streptavidin-alkaline phosphatase complex was then quantitated by a colorimetric phosphatase assay read on a 96-well plate reader.
(§2) The following peptides were used in the initial study: […]

[2] = target: T2, MMSc1 PDZ 5 (Homo sapiens, UniProt Q8NI35); experiment: Peptide binding ELISA assay (PDZ Binding Assay), MMSC1 PDZ domain 5; details: immobilized GST fusion of MMSc1 PDZ 5; biotinylated peptide pre-bound to streptavidin-alkaline phosphatase; colorimetric phosphatase assay
T2 construct: made in house; host or cells: E. coli
T2 sequence (Q8NI35 686-772 limits assumed): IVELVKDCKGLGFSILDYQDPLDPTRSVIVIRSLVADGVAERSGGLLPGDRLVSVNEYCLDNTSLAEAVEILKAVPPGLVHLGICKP
Excerpt: as §1, §2

[3] = target: T3, MMSc1 PDZ 6 (Homo sapiens, UniProt Q8NI35); experiment: Peptide binding ELISA assay (PDZ Binding Assay), MMSC1 PDZ domain 6; details: immobilized GST fusion of MMSc1 PDZ 6; biotinylated peptide pre-bound to streptavidin-alkaline phosphatase; colorimetric phosphatase assay
T3 construct: made in house; host or cells: E. coli
T3 sequence (Q8NI35 1068-1160 limits assumed): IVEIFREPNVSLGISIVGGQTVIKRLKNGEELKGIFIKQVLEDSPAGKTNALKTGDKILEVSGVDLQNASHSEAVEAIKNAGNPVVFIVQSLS
Excerpt: as §1, §2

[4] = target: T4, MMSc1 PDZ 7 (Homo sapiens, UniProt Q8NI35); experiment: Peptide binding ELISA assay (PDZ Binding Assay), MMSC1 PDZ domain 7; details: immobilized GST fusion of MMSc1 PDZ 7; biotinylated peptide pre-bound to streptavidin-alkaline phosphatase; colorimetric phosphatase assay
T4 construct: made in house; host or cells: E. coli
T4 sequence (Q8NI35 1239-1322 limits assumed): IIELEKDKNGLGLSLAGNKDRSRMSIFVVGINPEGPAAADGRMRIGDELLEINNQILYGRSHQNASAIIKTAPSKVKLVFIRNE
Excerpt: as §1, §2

[5] = target: T5, MMSc1 PDZ 8 (Homo sapiens, UniProt Q8NI35); experiment: Peptide binding ELISA assay (PDZ Binding Assay), MMSC1 PDZ domain 8; details: immobilized GST fusion of MMSc1 PDZ 8; biotinylated peptide pre-bound to streptavidin-alkaline phosphatase; colorimetric phosphatase assay
T5 construct: made in house; host or cells: E. coli
T5 sequence (Q8NI35 1437-1520 limits assumed): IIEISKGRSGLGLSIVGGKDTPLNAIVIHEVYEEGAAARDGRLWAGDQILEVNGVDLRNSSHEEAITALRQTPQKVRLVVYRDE
Excerpt: as §1, §2

[6] = target: T6, MMSc1 PDZ 9 (Homo sapiens, UniProt Q8NI35); experiment: Peptide binding ELISA assay (PDZ Binding Assay), MMSC1 PDZ domain 9; details: immobilized GST fusion of MMSc1 PDZ 9; biotinylated peptide pre-bound to streptavidin-alkaline phosphatase; colorimetric phosphatase assay
T6 construct: made in house; host or cells: E. coli
T6 sequence (Q8NI35 1533-1615 limits assumed): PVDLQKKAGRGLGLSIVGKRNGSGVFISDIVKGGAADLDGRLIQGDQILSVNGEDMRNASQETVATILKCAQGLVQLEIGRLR
Excerpt: as §1, §2

Substance | A405 [1] | A405 [2] | A405 [3] | A405 [4] | A405 [5] | A405 [6]
Biotin-ENEPFDEDQHTQITKV-OH [MMAC] | 0.01 | 0.00 | 0.23 | 1.25 | 0.30 | 0.10
Biotin-SGDDGDDPFLQYEFYV-OH [AF6] | 2.24 | 0.02 | 1.46 | 1.05 | 0.29 | 2.41
Biotin-SGSGILAPPVPPRNTR-OH [SH3] | 0.01 | 0.00 | 0.00 | 0.01 | 0.00 | 0.02
